Source: patent US20020137891A1, “Protein scaffold and its use to multimerise monomeric polypeptides” (priority 1999, published 2002)

Legend:
[1] = target: T1, pig heart mitochondrial malate dehydrogenase (mtMDH) (Sus scrofa, UniProt P00346); assay: In vitro refolding and aggregation protection of heat- and dithiothreitol-denatured mtMDH; assay type: biochemical
T1 construct: pig heart mitochondrial malate dehydrogenase (mtMDH; Boehringer-Mannheim); purchased Boehringer-Mannheim; host or cells: pig heart
T1 sequence (P00346 25-338): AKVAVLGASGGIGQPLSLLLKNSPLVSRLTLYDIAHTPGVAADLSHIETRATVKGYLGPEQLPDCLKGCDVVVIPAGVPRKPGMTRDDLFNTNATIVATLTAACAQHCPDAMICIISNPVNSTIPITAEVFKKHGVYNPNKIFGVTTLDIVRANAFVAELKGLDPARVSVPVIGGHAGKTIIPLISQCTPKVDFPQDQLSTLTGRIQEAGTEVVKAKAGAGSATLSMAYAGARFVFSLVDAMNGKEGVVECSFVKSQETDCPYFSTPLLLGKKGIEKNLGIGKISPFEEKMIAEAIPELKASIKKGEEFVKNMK
Procedure: In vitro refolding experiments. Refolding assays of pig heart mitochondrial malate dehydrogenase (mtMDH; Boehringer-Mannheim) and aggregation protection were carried out essentially as described (Peres Ben-Zvi, A. P., Chatellier, J., Fersht, A. R. & Goloubinoff, P. (1998) Proc. Natl. Acad. Sci. U.S.A. 95, 15275-15280). The concentrations of MC7 used were between 8-16 μM (reporter to protomer).

E. coli SV2 groEL44 = assay: In vivo complementation of thermosensitive groEL mutant at 43° C., strain SV2; assay type: cell-based; details: pJC plasmid, relative to growth at 30° C.
Procedure: In vivo complementation experiments. Complementation experiments were performed by transforming electro-competent SV2 or SV6 cells with the pJC series of expression vectors and plating an aliquot of the transformation reactions directly at 43° C. The percentage of viable cells relative to the growth at 30° C. was determined. A representative number of clones which grew at 43° C. were incubated in absence of any selective markers at permissive temperature. After prolonged growth the loss of the pJC plasmids and the ts phenotype were verified. Each experiment was performed in duplicate. Plasmids carrying no groE genes or encoding the GroE proteins were used as negative or positive controls, respectively.

bacteriophage T4 (T4D0) = assay: Growth (plaque formation) of bacteriophage T4 at 37° C. in transformed wild-type and groEL mutant strains; assay type: cell-based, E. coli; set-up: key: +++: normal plaque-forming ability relative to wild-type groEL^+ strain, in terms of both number and size; ++: 5-fold fewer plaques relative to wild-type groEL^+ strain, or both; 10-fold fewer plaques, or plaque size reduced relative to wild-type groEL^+ strain, or both; +/−: 10^2-fold fewer plaques and plaque size reduced relative to wild-type groEL^+ strain; no visible plaques (<10^−4); details: pJC plasmid
From the text: Bacterial and bacteriophage strains. The E. coli strains used in this study were: C41(DE3), a mutant of BL21(DE3) capable of expressing toxic genes (Miroux, B. & Walker, J. E. (1996) J. Mol. Biol. 260, 289-298); SV2 (B178groEL44), SV3 (B178groEL59) and SV6 (B178groEL673): isogenic strains carrying temperature-sensitive alleles of groEL; SV1(=B178) (Georgopoulos, C., Hendrix, R. W., Casjens, S. R. & Kaiser, A. D. (1973) J. Mol. Biol. 76, 45-60), AI90 (ΔgroEL::kan^R) [pBAD-EL] (Ivic, A., Olden, D., Wallington, E. J. & Lund, P. A. (1997) Gene 194, 1-8), and TG1 (Gibson, T. J. (1984) Ph.D. thesis, University of Cambridge, U.K). Bacteriophage λb2cI (Zeilstra-Ryalls, J., Fayet, O., Baird, L. & Georgopoulos, C. (1993) J. Bacteriol. 175, 1134-1143) was used according to standard methods (Arber, W., Enquist, L., Hohn, B., Murray, N. E. & Murray, K. (1983) in Lambda II., ed. R. W. Hendrix, J. W. r., F. W. Stahl and R. A. Weisberg (Cold Spring Harbor Laboratory, Cold Spring Harbor, N.Y.), pp. 433-466); plaque formation was assayed at 30° C. T4D0, a derivative of bacteriophage T4 (Zeilstra-Ryalls, J., Fayet, O., Baird, L. & Georgopoulos, C. (1993) J. Bacteriol. 175, 1134-1143), was used according to standard methods (Karam, J. D. (1994) Molecular biology of bacteriophage T4. (American Society for Microbiology, Washington, D.C.)); plaque formation was assayed at 37° C.
Bacteriophage λ requires the chaperonins GroES and GroEL for protein folding during morphogenesis; bacteriophage T4 requires GroEL and Gp31, the latter being encoded by the bacteriophage genome (Zeilstra-Ryalls, J., Fayet, O. & Georgopoulos, C. (1991) Annu. Rev. Microbiol. 45, 301-325). Nine groE alleles which fail to support λ growth have been sequenced (Zeilstra-Ryalls, J., Fayet, O., Baird, L. & Georgopoulos, C. (1993) J. Bacteriol. 175, 1134-1143). We examined the ability of MC7, over-expressed from the constitutive tet promoter on a high-copy number vector (see FIG. 2), to complement three mutant groEL alleles for plaque formation by λ (b2cI) at 30° C. (Table 3) and T4 at 37° C. (Table 4).

[2] = system: Lorist6 (bacteriophage λ origin vector); assay: Effect of over-expression on Lorist6 replication; assay type: cell-based, E. coli; details: over-expression from pJC vectors in TG1 or SV1
Procedure: Effect on Lorist6 replication of over-expressing of MC7. The effect of over-expressing Gp31 proteins from pJC vector series on the replication of the bacteriophage λ origin vector, Lorist6 (Gibson, T. J., Rosenthal, A. & Waterston, R. H. (1987) Gene 53, 283-286) in TG1 (Gibson, T. J. (1984) Ph.D. thesis, University of Cambridge, U.K) or SV1 (Georgopoulos, C., Hendrix, R. W., Casjens, S. R. & Kaiser, A. D. (1973) J. Mol. Biol. 76, 45-60) cells was determined essentially as described (Chatellier, J., Hill, F., Lund, P. & Fersht, A. R. (1998) Proc. Natl. Acad. Sci. U.S.A. 95, 9861-9866).

GroES = GroES (Escherichia coli, UniProt P0A6F9); details: read-out: apparent dissociation constant for the formation of the GroEL-GroES complex; cited from earlier work
GroES, sequence (P0A6F9 whole entry): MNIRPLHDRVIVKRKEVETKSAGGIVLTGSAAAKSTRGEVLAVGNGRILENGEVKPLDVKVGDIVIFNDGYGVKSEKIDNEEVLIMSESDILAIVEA

## GroEL (1-548): E. coli molecular chaperone, 14 subunits of 57.5 kD in two seven membered rings [reference compound]
[1]; after 120 min, FIG. 7c
  yield of refolded mtMDH: 6 nM
[1]; reactivation at 25° C., chaperone alone, FIG. 7b
  rate of refolding of denatured mtMDH: 0.04 nM/min
E. coli SV2 groEL44
  Relative colony forming ability, SV2 groEL44: 1
Bacteriophage T4 (T4D0)
  Growth of bacteriophage T4, SV1 (groEL^+): +++
  Growth of bacteriophage T4, SV2 groEL44: +++
  Growth of bacteriophage T4, SV3 groEL59: +++
  Growth of bacteriophage T4, SV6 groEL673: +++
[2]
  Replication of the Lorist6 plasmid: inhibit the replication of the Lorist6 plasmid
GroES
  Kd: 1000 nM
